These results are taken from US12263171B2, “7-, 8-, and 10-substituted amino triazolo quinazoline derivatives as adenosine receptor antagonists, pharmaceutical compositions and their use” (Merck Sharp & Dohme LLC, priority 2018, dated 2025).

For experiment [1], the target named is human A2b adenosine receptor (Homo sapiens (Human), UniProt P29275). The experiment in a line: A2b radioligand filtration binding assay (tritiated proprietary A2b antagonist, HEK293 membranes). Particulars: for IC50: unstarred values: radioligand binding; for A2B binding % inh. @ 10000 nM: unstarred. On the procedure:
Measurement of A2b Binding Affinity
The reported affinity of the compounds of the invention for the human A2b adenosine receptor was determined experimentally using a radioligand filtration binding assay. This assay measures the amount of binding of a tritiated proprietary A2b receptor antagonist, in the presence and absence of a compound of the invention, to membranes made from HEK293 cells recombinantly expressing the human A2b adenosine receptor (Perkin Elmer, Cat. No. ES-013-C).
The filter plate was incubated for at least 1 hour at 55° C. and allowed to dry. The bottom of the filter plate was then sealed with backing tape. […] The plates were then incubated for at least 20 minutes, and then the amount of radioactivity remaining in each well was determined using a TopCount® (Perkin Elmer) scintillation counter. After normalization to total and non-specific binding, the percent effect at each compound concentration was calculated. The plot of percent effect versus the log of compound concentration was analyzed electronically using a 4-parameter logistic fit based on the Levenberg-Marquardt algorithm to generate IC50 values.

The target of experiment [2] is human A2a adenosine receptor (Homo sapiens (Human), UniProt P29274). The experiment in a line: A2a receptor affinity radioligand binding assay ([3H] SCH58261, membranes from HEK293 or CHO cells). Conditions: unstarred values: radioligand binding. On the procedure:
The A2a receptor affinity binding assay measured the amount of binding of a tritiated ligand with high affinity for the A2a adenosine receptor to membranes made from HEK293 or CHO cells recombinantly expressing the human A2a adenosine receptor, in the presence of varying concentrations of a compound of the invention.
Measurement of A2a Binding Affinity Using Radioligand Binding
148 μL, (5 μg/mL) membranes (Perkin Elmer, Cat. No. RBHA2aM4001A) and 2 μL compounds of the invention to be tested (test compound) were transferred to individual wells of a 96-well polypropylene assay plate and incubated for 15 to 30 minutes at room temperature. [^3H] SCH58261 ((7-(2-phenylethyl)-5-amino-2-(2-furyl)-pyrazolo-[4,3-e]-1,2,4-triazolo[1,5-c]pyrimidine)) was diluted in assay buffer (50 mM Tris pH 7.4, 10 mM MgCl2, 0.005% Tween20) to a concentration of 4 nM and 50 μL transferred to each well of the assay plate. […] The assay plate was incubated at room temperature for 60 minutes with agitation. […] Filtering was achieved by aspirating the contents of the assay plate for 5 seconds, then washing and aspirating the contents three times with ice-cooled wash buffer (50 mM Tris-HCl pH 7.4, 150 mM NaCl) and allowing the vacuum manifold to dry the plate for 30 seconds. The filter plate was incubated for at least 1 hour at 55° C. and allowed to dry. The bottom of the filter plate was sealed with backing tape. 40 μL. […] The plate was incubated for at least 20 minutes, and then the amount of radioactivity remaining in each well was determined using a TopCown® (Perkin Elmer) scintillation counter. After normalization to total and non-specific binding, the percent effect at each compound concentration was calculated. The plot of percent effect versus the log of compound concentration was analyzed electronically using a 4-parameter logistic fit based on the Levenberg-Marquardt algorithm to generate IC50 values.

Broadly, the IC50 is the concentration at which inhibition is half-maximal. A lower IC50 goes with higher potency.

Chain of human A2a adenosine receptor (P29274 whole entry): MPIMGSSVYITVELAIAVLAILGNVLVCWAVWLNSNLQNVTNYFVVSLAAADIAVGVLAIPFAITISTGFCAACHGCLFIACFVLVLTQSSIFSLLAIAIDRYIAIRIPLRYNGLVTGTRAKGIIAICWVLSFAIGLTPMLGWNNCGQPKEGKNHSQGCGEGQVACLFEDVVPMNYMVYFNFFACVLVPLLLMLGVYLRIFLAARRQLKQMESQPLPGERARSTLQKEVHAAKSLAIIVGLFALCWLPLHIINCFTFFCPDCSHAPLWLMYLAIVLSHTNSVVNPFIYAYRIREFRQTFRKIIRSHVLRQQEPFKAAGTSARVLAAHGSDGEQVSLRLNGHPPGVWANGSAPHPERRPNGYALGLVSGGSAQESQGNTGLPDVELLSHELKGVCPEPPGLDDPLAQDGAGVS
Chain of human A2b adenosine receptor (P29275 whole entry): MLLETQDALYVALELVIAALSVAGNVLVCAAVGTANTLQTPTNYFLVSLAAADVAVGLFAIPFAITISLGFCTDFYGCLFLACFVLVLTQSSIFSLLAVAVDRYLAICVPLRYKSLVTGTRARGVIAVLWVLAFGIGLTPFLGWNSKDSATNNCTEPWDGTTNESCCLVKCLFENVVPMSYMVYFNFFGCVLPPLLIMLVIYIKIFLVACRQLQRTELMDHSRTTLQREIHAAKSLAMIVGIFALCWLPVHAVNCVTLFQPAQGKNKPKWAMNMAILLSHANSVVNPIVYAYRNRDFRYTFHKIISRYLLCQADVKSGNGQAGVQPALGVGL

Take `COc1cccc2c1nc(N)n1nc([C@@H]3CCCN(c4cnn(C5CCCC5(C)O)c4)C3)nc21` (single isomer, unassigned) [Example 59B]: the IC50 turned out to be 0.0017 µM in experiment [1] and 0.0003 µM in experiment [2].

Regarding `COc1cccc2c1nc(N)n1nc([C@@H]3CCCN(c4ncccn4)C3)nc21` [Example 117, (R)-7-methoxy-2-(1-(pyrimidin-2-yl)piperidin-3-yl)-[1,2,4]triazolo[1,5-c]quinazolin-5-amine], the IC50 in experiment [1] amounted to 0.431 µM; in experiment [2] it was 0.0009 µM.

In the case of `COc1cccc2c1nc(N)n1nc(C3CCCN(c4cnn(C)c4)[C@@H]3C)nc21` (stereo partly drawn) [Example 128B], the “A2B binding % inh. @ 10000 nM” value in experiment [1] is reported as 14% inh. @ 10000 nM. This compound came in with an IC50 in experiment [2] of 6.3 µM.

Take `Cc1ccc2c(nc(N)n3nc(C4CCCN(c5cnn(C)c5)C4)nc23)c1C` (single isomer, unassigned) [Example 167, (R or S)-7,8-dimethyl-2-(1-(1-methyl-1H-pyrazol-4-yl)piperidin-3-yl)-[1,2,4]triazolo[1,5-c]quinazolin-5-amine]: the figures for the IC50 in experiment [1] and in experiment [2] were 0.117 µM and 0.0141 µM, respectively.

Consider `COc1cccc2c1nc(N)n1nc([C@@H]3CCC[C@H](c4cnn(CC(C)(C)O)c4)C3)nc21` (single isomer, unassigned) [Example 137, 1-(4-((1S,3R or 1R,3S)-3-(5-amino-7-methoxy-[1,2,4]triazolo[1,5-c]quinazolin-2-yl)cyclohexyl)-1H-pyrazol-1-yl)-2-methylpropan-2-ol], for which the figures for the IC50 in experiment [1] and in experiment [2] were 8.65 µM and 0.12 µM, respectively.

Regarding `C[C@H]1CC[C@@H](c2nc3c4ccc(C#N)cc4nc(N)n3n2)CN1c1cnn(CC(C)(C)O)c1` [Example 202, 5-amino-2-((3R,6S)-1-(1-(2-hydroxy-2-methylpropyl)-1H-pyrazol-4-yl)-6-methylpiperidin-3-yl)-[1,2,4]triazolo[1,5-c]quinazoline-8-carbonitrile], the IC50 in experiment [1] came to 0.211 µM; in experiment [2], 0.0042 µM.

For `COc1cccc2c1nc(N)n1nc([C@H]3CC[C@H](C)N(c4cn(CC(C)(C)O)nc4C)C3)nc21` [Example 145B], the results for the half-maximal inhibitory concentration (IC50) in experiment [1] and in experiment [2] were 0.0572 µM and 0.0012 µM, respectively.

As for `COc1cccc2c1nc(N)n1nc([C@@H]3CCCN(c4cnn(C(C)(C)C(=O)NC5CCC5)c4)C3)nc21` [Example 37, (R)-2-(4-(3-(5-amino-7-methoxy-[1,2,4]triazolo[1,5-c]quinazolin-2-yl)piperidin-1-yl)-1H-pyrazol-1-yl)-N-cyclobutyl-2-methylpropanamide], the IC50 in experiment [1] worked out at 0.0107 µM; in experiment [2], 0.0015 µM.

As to `COc1c(Cl)ccc2c1nc(N)n1nc(C3CCCN(c4cnn(C)c4)C3)nc21` (single isomer, unassigned) [Example 173, (R or S)-8-chloro-7-methoxy-2-(1-(1-methyl-1H-pyrazol-4-yl)piperidin-3-yl)-[1,2,4]triazolo[1,5-c]quinazolin-5-amine], the IC50 in experiment [1] stood at 0.403 µM; in experiment [2] it was 0.0036 µM.

Consider `COc1cccc2c1nc(N)n1nc([C@@H]3CCCN(c4cnn(C5CCS(=O)(=O)CC5)c4)C3)nc21` [Example 122, (R)-4-(4-(3-(5-amino-7-methoxy-[1,2,4]triazolo[1,5-c]quinazolin-2-yl)piperidin-1-yl)-1H-pyrazol-1-yl)tetrahydro-2H-thiopyran 1,1-dioxide], for which the half-maximal inhibitory concentration (IC50) in experiment [1] worked out at 0.0584 µM; in experiment [2] it was 0.0001 µM.

Consider `COc1cccc2c1nc(N)n1nc([C@@H]3CCCN(c4ccc(=O)n(C)c4)C3)nc21` [Example 88, (R)-5-(3-(5-amino-7-methoxy-[1,2,4]triazolo[1,5-c]quinazolin-2-yl)piperidin-1-yl)-1-methylpyridin-2(1H)-one], for which the values for the 50% inhibitory concentration (IC50) in experiment [1] and in experiment [2] were 0.295 µM and 0.002 µM, respectively.

On to `COc1cccc2c1nc(N)n1nc([C@@H]3CCC[C@](O)(c4cnn(CC(C)(C)O)c4)C3)nc21` (single isomer, unassigned) [Example 135, (1R, 3R or 1S,3S)-3-(5-amino-7-methoxy-[1,2,4]triazolo[1,5-c]quinazolin-2-yl)-1-(1-(2-hydroxy-2-methylpropyl)-1H-pyrazol-4-yl)cyclohexan-1-ol], for which the IC50 in experiment [1] is 0.168 µM; in experiment [2] it was 0.0013 µM.

`COc1ccc2c(c1)nc(N)n1nc([C@H]3C[C@@H](F)CN(c4cn(CC(C)(C)O)nc4C)C3)nc21` [Example 197A, 1-(4-((3S,5R)-3-(5-amino-8-methoxy-[1,2,4]triazolo[1,5-c]quinazolin-2-yl)-5-fluoropiperidin-1-yl)-3-methyl-1H-pyrazol-1-yl)-2-methylpropan-2-ol]: the “A2B binding % inh. @ 10000 nM” value in experiment [1] turned out to be 31% inh. @ 10000 nM. The compound also registered a concentration for half-maximal inhibition (IC50) in experiment [2] of 0.099 µM.

As for `COc1cccc2c1nc(N)n1nc(C3CCCCN(c4cn(C)nn4)C3)nc21` (stereo not drawn) [Example 175], the values for the IC50 in experiment [1] and in experiment [2] were 0.0232 µM and 0.0001 µM, respectively.

Regarding `COc1cccc2c1nc(N)n1nc([C@@H]3CCCN(c4ccn(C)n4)C3)nc21` [Example 66, (R)-7-methoxy-2-(1-(1-methyl-1H-pyrazol-3-yl)piperidin-3-yl)-[1,2,4]triazolo[1,5-c]quinazolin-5-amine], the half-maximal inhibitory concentration (IC50) in experiment [1] amounted to 0.144 µM; in experiment [2], 0.0007 µM.

`COc1ccc2c(c1)nc(N)n1nc([C@@H]3CCCN(c4cnn([C@@H](C)C(C)(C)O)c4)C3)nc21` [Example 185B, (S)-3-(4-((R)-3-(5-amino-8-methoxy-[1,2,4]triazolo[1,5-c]quinazolin-2-yl)piperidin-1-yl)-1H-pyrazol-1-yl)-2-methylbutan-2-ol]: the 50% inhibitory concentration (IC50) in experiment [1] was determined as 0.116 µM; in experiment [2], 0.001 µM.

On to `COc1ccc2c(c1)nc(N)n1nc([C@@H]3CCCN(c4cnn(C(C)(C)CO)c4)C3)nc21` [Example 188, (R)-2-(4-(3-(5-amino-8-methoxy[1,2,4]triazolo[1,5-c]quinazolin-2-yl)piperidin-1-yl)-1H-pyrazol-1-yl)-2-methylpropan-1-ol], for which the IC50 in experiment [1] came out at 0.0446 µM; in experiment [2] it was 0.0007 µM.

For `COc1cccc2c1nc(N)n1nc([C@@H]3CCCN(c4cn(CC(C)(C)O)nc4C(F)(F)F)C3)nc21` [Example 52, (R)-1-(4-(3-(5-amino-7-methoxy-[1,2,4]triazolo[1,5-c]quinazolin-2-yl)piperidin-1-yl)-3-(trifluoromethyl)-1H-pyrazol-1-yl)-2-methylpropan-2-ol], the 50% inhibitory concentration (IC50) was found to be 0.35 µM in experiment [1] and 0.0004 µM in experiment [2].

Consider `COc1cccc2c1nc(N)n1nc(C3CCC[C@](O)(c4cnn(C)c4)C3)nc21` (single isomer, unassigned) [Example 134A], for which the values for the IC50 in experiment [1] and in experiment [2] were 7.75 µM and 0.0618 µM, respectively.

For `COc1cccc2c1nc(N)n1nc([C@@H]3CCCN(c4cnn(C5CCOC5)c4)C3)nc21` (single isomer, unassigned) [Example 57B], the half-inhibitory concentration (IC50) in experiment [1] worked out at 0.0893 µM; in experiment [2] it was 0.0003 µM.

With `COc1cccc2c1nc(N)n1nc([C@@H]3CCCN(c4ncn(CC(F)(F)F)n4)C3)nc21` [Example 69, (R)-7-methoxy-2-(1-(1-(2,2,2-trifluoroethyl)-1H-1,2,4-triazol-3-yl)piperidin-3-yl)-[1,2,4]triazolo[1,5-c]quinazolin-5-amine], the half-maximal inhibitory concentration (IC50) in experiment [1] was 0.144 µM; in experiment [2], 0.0006 µM.

For the compound `COc1ccc2c(c1)nc(N)n1nc([C@@H]3CC[C@H](C)N(c4cnn([C@H](C)C(C)(C)O)c4)C3)nc21` [Example 211B, (R)-3-(4-((2S,5R)-5-(5-amino-8-methoxy-[1,2,4]triazolo[1,5-c]quinazolin-2-yl)-2-methylpiperidin-1-yl)-1H-pyrazol-1-yl)-2-methylbutan-2-ol], the half-maximal inhibitory concentration (IC50) in experiment [1] came to 0.0161 µM; in experiment [2], 0.0006 µM.

Consider `COc1ccc2c(c1)nc(N)n1nc([C@@H]3C[C@H](C)CN(c4cnn(CC(C)(C)O)c4)C3)nc21` (single isomer, unassigned) [Example 195D], for which the values for the IC50 in experiment [1] and in experiment [2] were 0.0849 µM and 0.0008 µM, respectively.

As to `COc1cccc2c1nc(N)n1nc([C@@H]3CCCN(c4cn(CC(C)(C)O)nc4C)C3)nc21` [Example 30, (R)-1-(4-(3-(5-amino-7-methoxy-[1,2,4]triazolo[1,5-c]quinazolin-2-yl)piperidin-1-yl)-3-methyl-1H-pyrazol-1-yl)-2-methylpropan-2-ol], the 50% inhibitory concentration (IC50) is 0.103 µM in experiment [1] and 0.0004 µM in experiment [2].
